Results published in ChEMBL document CHEMBL2331291, “Targeting CCR2 Receptor To Treat Inflammation Diseases and Disorders” (ACS Med Chem Lett, 2013).

Columns and labels:
[1] = target: C-C chemokine receptor type 5 (Homo sapiens, UniProt P51681); test: Displacement of [125I]RANTES from human CCR5 expressed in CHO cell membranes coexpressing Gal6 after 6 hrs by scintillation counting analysis
[2] = target: C-C chemokine receptor type 2 (Homo sapiens, UniProt P41597); test: Displacement of [125I]MCP1 from CCR2 in human THP1 cell membranes after 8 hrs by scintillation counting analysis; set-up: species or system THP-1
Sequence of C-C chemokine receptor type 2 (P41597 whole entry): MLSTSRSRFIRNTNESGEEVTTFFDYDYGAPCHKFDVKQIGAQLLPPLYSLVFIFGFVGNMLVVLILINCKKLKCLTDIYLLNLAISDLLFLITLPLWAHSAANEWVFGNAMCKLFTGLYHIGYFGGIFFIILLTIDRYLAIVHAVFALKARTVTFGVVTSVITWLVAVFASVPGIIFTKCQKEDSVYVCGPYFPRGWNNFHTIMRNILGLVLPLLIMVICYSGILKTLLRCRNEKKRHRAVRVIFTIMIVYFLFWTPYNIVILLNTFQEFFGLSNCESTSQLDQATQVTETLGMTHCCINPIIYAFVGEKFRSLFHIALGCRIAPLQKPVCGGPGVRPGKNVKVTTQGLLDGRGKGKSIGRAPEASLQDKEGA

Sequence of C-C chemokine receptor type 5 (P51681 whole entry): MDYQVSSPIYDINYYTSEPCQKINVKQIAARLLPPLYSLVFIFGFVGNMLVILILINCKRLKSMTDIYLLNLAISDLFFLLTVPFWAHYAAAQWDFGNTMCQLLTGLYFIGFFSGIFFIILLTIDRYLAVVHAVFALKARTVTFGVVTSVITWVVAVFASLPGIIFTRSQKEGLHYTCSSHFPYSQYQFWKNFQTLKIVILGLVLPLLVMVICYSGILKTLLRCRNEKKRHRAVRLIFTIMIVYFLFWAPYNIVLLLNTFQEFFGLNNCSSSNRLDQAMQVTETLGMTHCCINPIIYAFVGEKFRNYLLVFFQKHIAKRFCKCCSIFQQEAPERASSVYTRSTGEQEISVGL

CO[C@@H]1COCC[C@@H]1NC1CCN(C(=O)c2nc(C(F)(F)F)nc(N3CCc4cc(C(F)(F)F)ccc4C3)c2C)CC1
Ki [1]: 150 nM | Ki [2]: 2 nM
